A word on the ΔTm: it is the shift of the melting midpoint relative to a reference.

Consider 1 compound from US9464308B2, “Method for transcriptional amplification of nucleic acids combining steps of different temperatures” (priority 2011, dated 2016).

Test [1] deals with HIV-1 type B transcript. Kind of test: Sensitivity of NASBA detection at 46° C. without target denaturation phase. The following applies: HIV-1 type B transcript at 5 cps/test, no target denaturation phase, N=24. The test is classed as biochemical. The source says:
FIG. 4 gives the measurement of the sensitivity (%) obtained in the presence of various thermostabilizing compounds during an HIV-1 type B NASBA amplification at 5 cps/test and without target denaturation phase (N=24).
The objective of this is to simplify the method by virtue of the simultaneous addition of the targets to the enzyme and amplification reagent mixes.
A Nuclisens™ HIV-1 2.0 amplification kit (ref.: 285033, bioMérieux, Marcy l'Etoile, France) was used to carry out the amplification experiments in the presence of trehalose, sucrose or sorbitol at the detection limit with an HIV-1 type B transcript at 5 cps/test. Each amplification is replicated 24 times in order to estimate the sensitivity of the test in the presence of thermostabilizing compounds at 46° C.
The sensitivity is expressed as percentage of positive signals determined by the EasyQ™ analysis system, relative to the total number of replicates.

Test [2] concerns the target T1, T7 RNA polymerase (Escherichia phage T7, UniProt P00573).
T1 construct: purchased bioMérieux, Marcy l'Etoile, France
Kind of test: Maximum preincubation temperature preserving T7 RNA polymerase activity (3 min preincubation). The test is classed as biochemical. The following applies: 1.4 M sorbitol. The procedure:
FIG. 2 describes the residual activity (%) of T7 RNA polymerase after 3 minutes of preincubation at various temperatures and in the presence of various thermostabilizing compounds.
In this example, the maximum temperature that the T7 RNA polymerase could withstand for a preincubation of 3 minutes in the presence of thermostabilizing compounds is determined.
This step can be likened to a target predenaturation or preincubation phase. The protocol used in this example is similar to that of example 2, with the exception of the fact that the temperatures are variable and that the preincubation time was fixed at 3 minutes.

Test [3] concerns the target T1, T7 RNA polymerase. The test can be described thus: Thermal denaturation of T7 RNA polymerase (T7 Tm) by UV spectrophotometry. It counts as physicochemical. The procedure: T7 RNA polymerase was chosen as model enzyme since it is the most sensitive to thermal denaturation; the T7 Tm without additive is 48.5° C.
A UV spectrophotometry technique is used to measure the T7 Tm values. The change in the absorbance of the protein at λ=280 nm as a function of temperature is measured. When the enzyme is heated, the solution becomes cloudy, and aggregates form which correspond to the denatured form. The Tm corresponds to the temperature for which there is 50% of native form and 50% of denatured form (first derivative of the curve absorbance=f(temperature)).
In a polypropylene flask, 4 ml of 300 mM PBS phosphate buffer (Aldrich P-4417, St Quentin Fallavier, France) are mixed with 12μl of T7 RNA polymerase enzyme (bioMérieux, Marcy l'Etoile, France) at 17 mg/ml, i.e. a final protein concentration of 0.05 mg/ml. 500 μl of T7 RNA polymerase solution at 0.05 mg/ml and 500 μl of a concentrated solution of additives (Aldrich, St Quentin Fallavier, France) or of 300 mM PBS for the control are then placed in a quartz cuvette for UV spectrophotometry. After homogenization, the change in absorbance at λ=280 nm is measured as a function of temperature, between 30 and 65° C. at 1° C./min, in order to determine the T7 Tm as previously described (Cary UV spectrophotometer, Varian, Les Ulis, France).

Test [4] concerns the target T1, T7 RNA polymerase. Kind of test: Thermostability (T1/2) at 46° C. of T7 RNA polymerase activity. The following applies: environment specific to NASBA, sorbitol 1.48 M. It counts as biochemical. The procedure:
In this example, the values of T1/2 of T7 RNA polymerase are determined in the presence or absence of polyols. A description of the measurement method is given below, as are the various reagents used.
Mix buffers B, C and D according to the following proportions with the following Nuclisens™ HIV-1 2.0 reagents (ref.: 285033, bioMérieux, Marcy l'Etoile, France) (for eight reactions): • 36.08 μl buffer A • 6.32 μl buffer B • 25.36 μl buffer C • 173.6 μl buffer D • eight “Nuclisens™ HIV-1 2.0 accusphere reagent” • 960 μl of “Nuclisens™ HIV-1 2.0 diluent reagent”. […]
• 1. The enzymes to be evaluated are diluted in such a way as to have a volumetric activity of 109 kU/ml. • 2. A volume of 20 μl of the enzyme to be evaluated is diluted in 840 μl of solution W1. • 3. 114 μl of the compound to be evaluated are then added to 193.5 μl of enzymatic mix described in point 2 above. • 4. […] 20 μl of solution S are added to 5 n1 of this preincubated mixture in order to measure the rate of increase in fluorescence between 5 and 10 minutes, associated with the residual activity of the enzyme. • 6. […]

In test [5] the test system is HIV-1 type B transcript. The test can be described thus: NASBA HIV-1 2.0 amplification test at 46° C., functional screening of thermostabilizing compounds. The following applies: 7.5 cps/reaction HIV-1B transcript, lactose 0.21 M, sorbitol 1.2 M, sucrose 0.6 M. It counts as biochemical. The procedure:
The FIG. 1 represent the functional screening of thermostabilizing compounds during NASBA amplifications at 46° C. in the presence of 7.5 cps/reaction of HIV-1B transcript (seven replicas per screening), with in:
A set of compounds with thermostabilizing properties or assumed to have such properties was evaluated in a NASBA HIV-1 2.0 amplification test on a Nuclisens EasyQ™ amplification platform (bioMérieux, Marcy l'Etoile, France) according to the supplier's recommendations. 5 cps to 30 cps of an HIV-1 type B transcript were used as target in each reaction in the presence or absence of the compound to be evaluated.
The obtaining of an amplification in the presence of the compound at a temperature of 46° C. makes it possible to validate the compound as compatible and thermostabilizing for the NASBA reaction.

T1 sequence (P00573 whole entry): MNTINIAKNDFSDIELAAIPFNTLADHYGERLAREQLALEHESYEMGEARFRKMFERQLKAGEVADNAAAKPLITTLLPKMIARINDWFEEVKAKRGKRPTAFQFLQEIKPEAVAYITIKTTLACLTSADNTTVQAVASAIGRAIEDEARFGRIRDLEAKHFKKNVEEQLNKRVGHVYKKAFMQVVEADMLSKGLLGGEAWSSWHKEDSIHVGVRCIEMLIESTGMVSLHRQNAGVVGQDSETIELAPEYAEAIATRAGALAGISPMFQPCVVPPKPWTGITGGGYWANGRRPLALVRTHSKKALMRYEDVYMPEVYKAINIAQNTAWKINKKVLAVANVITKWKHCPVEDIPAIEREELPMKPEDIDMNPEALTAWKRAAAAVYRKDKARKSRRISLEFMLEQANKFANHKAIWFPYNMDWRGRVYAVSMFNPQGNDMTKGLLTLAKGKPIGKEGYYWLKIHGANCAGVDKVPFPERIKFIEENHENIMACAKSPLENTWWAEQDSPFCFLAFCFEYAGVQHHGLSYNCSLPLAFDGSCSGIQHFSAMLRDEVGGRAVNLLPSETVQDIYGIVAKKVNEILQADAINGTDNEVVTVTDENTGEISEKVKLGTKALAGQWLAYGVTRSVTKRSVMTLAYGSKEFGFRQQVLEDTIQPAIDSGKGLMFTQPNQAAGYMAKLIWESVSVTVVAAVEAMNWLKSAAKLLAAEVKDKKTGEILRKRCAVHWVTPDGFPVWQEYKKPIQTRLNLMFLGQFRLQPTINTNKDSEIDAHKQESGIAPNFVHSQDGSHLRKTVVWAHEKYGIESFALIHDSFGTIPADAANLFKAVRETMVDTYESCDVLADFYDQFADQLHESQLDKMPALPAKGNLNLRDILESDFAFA

Take `OC[C@@H](O)[C@@H](O)[C@H](O)[C@@H](O)CO` [Sorbitol, sorbitol]: the “sensitivity (percentage of positive signals relative to total replicates)” value with HIV-1 type B transcript [1] was determined as 100%. Also, the “T7 RNA polymerase activity preserved” value at T7 RNA polymerase [2] (3 minutes at 48° C., 0.7 M sucrose, 0.4 M trehalose) was determined as 100%; at T7 RNA polymerase [2] (3 minutes at 49° C.) it was 100%. In addition, at T7 RNA polymerase [3] (T7 RNA polymerase at 0.05 mg/ml, PBS 150 mM pH 7.5, versus control without additive (T7 Tm 48.5° C.), Sorbitol 1M, Sucrose 1M, Lactose 0.35M, Raffmose 0.085M, D-Turanose 0.15M, read-out: ΔTm), the ΔTm worked out at 0.9 °C. For the same compound, the “denaturation temperature of the enzyme (in words)” value at T7 RNA polymerase [3] (heating T7 RNA polymerase in the presence of the additive) is recorded as “very significantly increase the denaturation temperature of the enzyme”. Moreover, on T7 RNA polymerase [4], the “thermostabilizing effect on the T7 RNA polymerase activity (in words)” value was “greatest thermostabilizing effect”. Also, the “NASBA amplification at 46° C. (positive signals out of seven replicas)” value in the test with HIV-1 type B transcript [5] is “at least four positive signals out of seven replicas”.
